We go through 5 compounds from patent US8349991B2, “Amphiphilic polymers and methods of use thereof” (Massachusetts Institute of Technology, priority 2005, dated 2013).

“Also recorded” adds a separate entry of the source. Where no end group is shown, it is not given here. The star is where a group is joined. Acm = CC(=O)NC*

Data set [1] in a line: Acute oral toxicity testing (LD50). The note with it: C57BI/6, mouse, in vivo. The method, then:
Acute oral toxicity testing of intact nanospheres and individual components was carried out to determine the LD50 (median lethal dose) with C57BI/6 (Table 2).

In the next data set the test system is INS-1 cells. Nature of the data set: Cellular cytotoxicity by MTS after exposure to polymers and reagents. The conditions noted are these: 1 mg/mL polymer or 0.05 mg/mL dye, 37° C., up to 48 hours post-exposure. It is filed as cell-based. Here is the method: Cellular cytotoxicity following exposure to the polymers and reagents: INS-1 cells were incubated with the polymers and/or reagents (1 mg/mL polymer or 0.05 mg/mL dye) at 37° C., and cellular viability was determined by MTS (FIG. 5).

Another data set concerns Cells. The note with it: 0.2 mg/mL, 5 hr, 37° C.
The next data set relates to INS cells. The note with it: 0.2 mg/mL, 37° C.
In data set [2] the test system is uMUC-1-positive tumors versus uMUC-1-negative tumors. On the set-up: species or system mice. The note with it: mouse, in vivo. The method, then: (§1) In vivo ^1H-MR imaging was performed on animals bearing bilateral uMUC-1-positive and uMUC-1-negative tumors before and 24 hours after probe injection. […] The same animals were subjected to optical imaging immediately after the MR-imaging session. […] Fluorescence microscopy of excised tumors and muscle tissue gave results consistent with NIRF images. From biodistribution studies with ^125I-CLIO-EPPT, on average uMUC-1-positive tumors accumulated 3.4 times more of the probe than uMUC-1-negative tumors.

Data set [3] can be described thus: Dynamic light scattering of CLIO-EPPT probes. It is filed as physicochemical. The source says:
To extend these studies using perfluoro labeled polymer, the same FITC-labeled EPPT1 peptide was used. […] The study with the CLIO-EPPT nanoparticles established test procedures which will be used.

The test system of data set [4] is human uMUC-1-positive tumor cell lines. The data set can be described thus: Cell binding assay with 125I-labeled CLIO-EPPT. In kind it is cell-based. The source says: (§2) FIG. 7 depicts a crosslinked iron oxide (CLIO)-EPPT multi-modal imaging probe. (A) The core protein of the MUC-1 tumor antigen. The immunodominant region of the tandem repeat is recognized by the EPPT1 peptide derived from an ASM2 monoclonal antibody (45). (B) Synthesis (left) and scheme of the probe (right). […] Left, overlay of the bright field and FITC channel; middle, overlay of the bright field and Cy5.5 channel; right, overlay of the FITC and Cy5.5 channels. […] Magnification bars=10 μm.
(§3) Cell binding assays (FIG. 7D) were carried out with a variety of human uMUC-1-positive tumor cell lines: ZR-75-1 (breast), BT-20 (breast), HT29 (colon), CAPAN-2 (pancreas), LS174T (colon), and ChaGo-K-1 (lung) as well as human control uMUC-1-negative tumor and normal cell lines.

The subject of data set [5] is human control uMUC-1-negative tumor and normal cell lines. The data set can be described thus: Cell binding assay with 125I-labeled CLIO-EPPT. In kind it is cell-based. The conditions noted are these: 1 hour incubation.
Excerpt: as §2, §3

Data set [6] relates to adenocarcinoma cell lines (BT-20, CAPAN-2, ChaGo-K-1, HT-29, LS174T). Nature of the data set: In vitro specificity of CLIO-EPPT (flow cytometry, fluorescence microscopy). In kind it is cell-based, human.
Excerpt: as §2
(§4) In vitro specificity of CLIO-EPPT for adenocarcinomas was further characterized by flow cytometric analysis of probe binding to selected adenocarcinoma and control cell lines (FIG. 7E). […] Fluorescence microscopy experiments, in which adenocarcinoma and control cells were incubated with the probe, confirmed the fluorescence-activated cell sorting data.

Data set [7] concerns control uMUC-1-negative cell line U87. Described as above. It is filed as cell-based, human.
Excerpt: as §2, §4

Data set [8] relates to uMUC-1-positive (LS174T) tumors. Nature of the data set: In vivo MR and NIRF imaging of tumor-bearing animals. Also noted: species or system mice. Here is the method: (§5) (B) White light (left), near-infrared fluorescent (NIRF) (middle) images, and a color-coded map (right) of mice bearing bilateral underglycosylated mucin-1 antigen uMUC-1-negative (U87) and uMUC-1-positive (LS174T) tumors. NIRF imaging was performed immediately after the MRI session. […] (D) Dual channel fluorescence microscopy of the frozen LS 174T tumor section. Green channel fluorescence from the FITC-labeled EPPT peptide (left) colocalized with Cy5.5 fluorescence derived from Cy5.5-labeled cross-linked iron oxides (middle). […] Magnification bar=10 μm.
as §1

In data set [9] the test system is uMUC-1-negative (U87) tumors. The description is as above. On the set-up: species or system mice. The conditions noted are these: control tumors. The method, then: as §5, §1
Data set [10] addresses underglycosylated mucin-1 antigen (uMUC-1) (Homo sapiens, UniProt P15941). The note with it: read-out: binding constant Kd; cited from earlier work.

Chain of underglycosylated mucin-1 antigen (uMUC-1) (P15941 24-1255): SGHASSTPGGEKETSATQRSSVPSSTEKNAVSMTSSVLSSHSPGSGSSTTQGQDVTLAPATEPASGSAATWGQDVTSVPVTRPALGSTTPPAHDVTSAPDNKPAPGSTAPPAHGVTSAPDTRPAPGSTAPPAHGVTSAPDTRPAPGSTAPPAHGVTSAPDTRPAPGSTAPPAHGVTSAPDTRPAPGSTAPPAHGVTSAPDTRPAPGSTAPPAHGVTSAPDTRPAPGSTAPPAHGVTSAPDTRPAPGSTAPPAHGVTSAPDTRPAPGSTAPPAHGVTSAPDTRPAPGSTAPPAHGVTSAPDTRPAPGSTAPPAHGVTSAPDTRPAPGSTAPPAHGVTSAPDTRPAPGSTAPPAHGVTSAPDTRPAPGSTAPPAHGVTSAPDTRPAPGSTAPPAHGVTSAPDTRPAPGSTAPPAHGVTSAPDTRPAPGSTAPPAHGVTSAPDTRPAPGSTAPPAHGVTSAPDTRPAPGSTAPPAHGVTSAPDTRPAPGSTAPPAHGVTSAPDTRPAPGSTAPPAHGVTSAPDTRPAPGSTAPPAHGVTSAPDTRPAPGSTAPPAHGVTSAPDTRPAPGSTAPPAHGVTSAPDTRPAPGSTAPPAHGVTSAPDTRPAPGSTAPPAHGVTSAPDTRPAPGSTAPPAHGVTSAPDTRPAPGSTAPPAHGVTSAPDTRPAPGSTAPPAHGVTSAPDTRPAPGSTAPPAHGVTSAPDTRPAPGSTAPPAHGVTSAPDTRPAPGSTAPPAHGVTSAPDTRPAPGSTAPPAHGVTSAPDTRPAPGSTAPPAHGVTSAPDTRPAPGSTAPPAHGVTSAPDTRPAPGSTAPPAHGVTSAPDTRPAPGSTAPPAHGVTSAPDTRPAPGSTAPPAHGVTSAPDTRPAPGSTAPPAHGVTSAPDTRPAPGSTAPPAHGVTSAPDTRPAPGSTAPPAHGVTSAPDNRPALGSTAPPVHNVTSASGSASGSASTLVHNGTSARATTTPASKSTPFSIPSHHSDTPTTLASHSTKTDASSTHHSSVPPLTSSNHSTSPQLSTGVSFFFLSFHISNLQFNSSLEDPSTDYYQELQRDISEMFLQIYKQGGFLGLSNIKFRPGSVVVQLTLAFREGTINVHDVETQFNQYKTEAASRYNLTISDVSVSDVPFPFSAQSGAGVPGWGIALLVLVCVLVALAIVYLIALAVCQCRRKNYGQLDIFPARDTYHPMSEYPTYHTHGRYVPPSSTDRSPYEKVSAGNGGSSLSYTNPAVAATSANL

In data set [1], `N[C@@H](CC(=O)O)C(=O)O` [Aspartic Acid] had an LD50 of 20000 mg/kg.

For `CCN(CC)c1ccc2c(-c3ccccc3C(=O)O)c3ccc(=[N+](CC)CC)cc-3oc2c1` [Rhodamine, Rhodamine B], the “cytotoxicity (cellular viability by MTS)” value in the data set with INS-1 cells is on record as “cytotoxic effects were readily observed”.

Take `COc1cccc2c1C(=O)c1c(O)c3c(c(O)c1C2=O)C[C@@](O)(C(=O)CO)C[C@@H]3O[C@H]1C[C@H](N)[C@H](O)[C@H](C)O1` [doxorubicin]: the “intracellular localization (confocal microscopy)” value in the data set on Cells is on record as “largely confined to the nucleus”. Besides, in the data set on INS cells, the “rate of cell death (MTS)” value is recorded as “comparable rate of cell death”.

With “CLIO-EPPT: cross-linked iron oxide nanoparticle carrying Cy5.5 dye and FITC-labeled EPPT1 peptides on the dextran coat; radioiodinated for binding and biodistribution (YC(Acm)AREPPTRTFAYWG-{K(FITC)-Lys}; not fully specified; printed as Y-C(ACM)-A-R-E-P-P-T-R-T-F-A-Y-W-G-K(FITC)K; also: conjugated to CLIO iron oxide nanoparticle with Cy5.5 dye, radioiodinated)”, in data set [2], the “probe accumulation in uMUC-1-positive tumors relative to uMUC-1-negative tumors” value turned out to be 3.4 times. In addition, the hydrodynamic diameter result in [3] is “about 36 nm”. Further, the “CLIO-EPPT nanoparticles bound per cell” value in data set [4] (125I-labeled, 1 hour incubation) was 10^7-10^8 nanoparticles per cell. The “accumulation versus uMUC-1-negative tumor or normal cells” value in data set [4] (cell binding assay, P<0.05) is given as “significantly more”. In addition, in data set [5], the “nanoparticle uptake versus uMUC-1-positive tumor cell lines” value was “much lower nanoparticle uptake”. In addition, the “probe binding by flow cytometry” value is “bound the probe; also recorded: a shift in fluorescence in the FLI and FL4 channels” in data set [6]; “no cell binding; also recorded: no shift” in data set [7] (control cell line U87). Besides, the “staining by fluorescence microscopy” value was “stained strongly; also recorded: colocalization of the FITC and Cy5.5 signal” in [6] (FITC and Cy5.5 channels); “no fluorescence was observed” in [7] (U87, FITC or Cy5.5 channels). In addition, the “decrease in signal intensity of T2-weighted MR images” value is listed as 52% in [8] (LS174T tumors, 24 h after probe injection) and 13-18% in [9] (24 hours after probe injection). Moreover, the “dual channel fluorescence microscopy of excised tumors” value in data set [8] (uMUC-1-positive tumors) was “colocalization of FITC and Cy5.5 signals”; in [9], “no signal”. The NIRF signal entry was “high intensity NIRF signal; also recorded: strong NIRF signal” in [8] (uMUC-1-positive tumors, immediately after MR-imaging session) and “no significant signal” in [9].

Consider “synthetic peptide YCAREPPTRTFAYWG (SEQ ID NO: 1) derived from CDR3 Vh region of monoclonal antibody ASM2 (not fully specified (C-terminus); listed as Homo sapiens) [EPPT1]”, for which the Kd in [10] was 20 µM.
